From patent US7432247B2, “Methods of cardioprotection using dichloroacetate in combination with an inotrope” (The Governors of the University of Alberta, priority 2002, dated 2008)
Several values for one entry are separate records, joined by “and”; a condition that tells them apart may be missing. Equal values may be shown once.

Tests used:
Assay type in all cases: in vivo, human
[1] = Plasma DCA levels after 50 mg/kg bolus in adult CABG patients (Example A); details: 50 mg/kg Na+ dichloroacetate, 1 hour following administration, n = 8 adult patients
Procedure: […] Based on the pharmacokinetics of DCA, we anticipated that this would produce a plasma concentration of approximately 1 mM. The study consisted of 8 DCA-treated patients and 10 placebo-treated patients.
[…] The coded solution was made such that a dose of 1 ml/kg provides the appropriate dose of DCA or placebo. Based on the pharmacokinetics of DCA, this was expected to result in a plasma level of DCA in the therapeutic range of (1 mM). All blood samples were analyzed by HPLC for DCA concentration.
Plasma samples were processed for DCA levels using a high performance liquid chromatography (HPLC) technique that separated the DCA from other plasma constituents. In brief, 20 μl of plasma sample was injected into a Beckman Gold HPLC containing a IonoBpher 5A column (250×4.6 mm LxID) and a AX Guard Column. The mobile phase of the column consisted of 10^-3 M pyromellitate buffer (pH=4.0). The flow rate of the HPLC was set at 3.0 ml/min and the DCA eluted from the column was detected by comparing DCA elution times to acetate, monochloroacetate, and trichloroacetate standards. Heart ventricular biopsy samples were taken at 0, and 20 minutes, and at 1 hour, following release of the cross clamp and reperfusion of the heart muscle, and immediately frozen in liquid N2. Blood samples were also taken at various intervals during the reperfusion period between 0 to 24 hours post-surgery.

[2] = Mortality in the adult CABG study (Example A); details: DCA group, 8 adult patients, 50 mg/kg bolus
Procedure: DCA or saline was administered to 18 patients undergoing elective cardiac bypass grafting surgery (CABG) in a double blinded randomized manner DCA (50 mg/kg in 100 ml of saline) or placebo was injected into the aortic root, immediately prior to removing aortic cross clamp. Based on the pharmacokinetics of DCA, we anticipated that this would produce a plasma concentration of approximately 1 mM. The study consisted of 8 DCA-treated patients and 10 placebo-treated patients.
The intervention involved DCA (50 mg/kg) or placebo injected into the aortic root immediately prior to removing aortic cross clamp. The coded solution was made such that a dose of 1 ml/kg provides the appropriate dose of DCA or placebo. Based on the pharmacokinetics of DCA, this was expected to result in a plasma level of DCA in the therapeutic range of (1 mM). All blood samples were analyzed by HPLC for DCA concentration.

[3] = DCA plasma levels in pediatric heart surgery patients, bolus and 24 hour infusion (Example C); details: for Average Optimum Mean of DCA Plasma Levels, mM at 1 hr / Average Optimum Mean of DCA Plasma Levels, mM at 6 hr / Average Optimum Mean of DCA Plasma Levels, mM at 12 hr / Average Optimum Mean of DCA Plasma Levels, mM at 24 hr: patients with greatest degree of clinical benefits
Procedure: (§1) In this trial, 53 infants were recruited to participate in a study, of which 51 patients met inclusion criteria after parental consent. Two dosing groups resulted from the study team changing the dosing protocol after the data from the initial 10 patients were analyzed. The data from patients number 1 to number 10 was analyzed for DCA therapeutic blood levels and therapeutic effect. A recommendation by the research team was made to increase the bolus dose of DCA and to decrease the infusion dose of DCA to maintain a DCA dose range of 1 mM for 24 hours. The intent was to administer the new protocol at patient number 20. The 1997 Epicore power calculations were based on separation of the study groups patients into group A of n=20 patients and Group B of n=31 patients
(§2) DCA (50 mg/kg) or placebo was injected into the aortic root immediately prior to removing aortic cross clamp. The coded solutions were made such that a dose of 1 ml/kg provided either a DCA therapeutic level of 1 mM plasma concentration of DCA, or a placebo solution. Immediately thereafter, an infusion of DCA at 25 mg/kg/hr or placebo in the same volume was initiated and run for 24 hours. Based on the pharmacokinetics of DCA, this was expected to maintain plasma levels of DCA in the therapeutic range of (0.2-1 mM). However, the plasma concentrations of DCA were below 1 mM after the first hour interval, and that the 24 hour plasma concentrations were elevated above 1 mM DCA levels at the 24 hour interval, a decision was made to modify the dosing protocol. This change in dosing protocol was approved by the Ethics Committee, but not implemented until patient number 24. All blood samples were analyzed by HPLC for DCA concentration. • (ii) Group B
(§3) DCA (100 mg/kg) or placebo was injected into the aortic root immediately prior to removing aortic cross clamp. The coded solutions were made such that a dose of 1 ml/kg provided either a DCA therapeutic level of 1 mM plasma concentration of DCA, or a placebo solution. Immediately thereafter, an infusion of DCA at 12.5 mg/kg/hr or placebo in the same volume was initiated and run for 24 hours. Based on the pharmacokinetics of DCA, this was expected to maintain plasma levels of DCA in the therapeutic range of (0.2-1 mM). All blood samples were analyzed by HPLC for DCA concentration.
Arterial blood samples were obtained from patients at the following times:
c. One hour after discontinuing cardiopulmonary bypass.
d. Six hours after discontinuing cardiopulmonary bypass
e. Twelve hours after discontinuing cardiopulmonary bypass.
f. Twenty four hours after discontinuing cardiopulmonary bypass.
Blood samples were collected from indwelling arterial lines into citrate-containing tubes (0.5 ml blood samples). The samples were spun in the microfuge, the plasma separated, and frozen immediately for later analysis. All plasma samples were stored at −80 degrees centigrade, until further processing. Plasma glucose and lactate were determined using a Sigma glucose kit and a spectrophotometric assay involving lactate dehydrogenase respectively. Plasma fatty acid levels were measured using an ELISA system and WAKO free fatty acid kit.

[4] = Pediatric heart surgery study, DCA bolus and infusion vs placebo: inotrope score, ICU time, ventilator time (Example C); parameters: reduction of Inotrope Score compared to placebo: concentration or dose not given beside the values; details: for average decrease in Inotrope Score per patient compared to placebo: over the 24 hour period
Procedure: This study was a randomized, placebo-controlled, double blinded, single surgeon, study of the use of DCA in 51 high-risk pediatric patients requiring heart surgery to correct complex congenital heart lesions.
as §1, §2, §3
In both the operating room at the end of cardiopulmonary bypass and in the intensive care unit, parenteral drugs were scored on an hourly basis with 1 point allotted for each level for each bolus or infusion given within the previous hour within the first 24 hours post-operatively. Thus at the end of 24 hours, high scores indicated poorer cardiac function.

[5] = Observed side effects of DCA in patients
[6] = Group A: 50 mg/kg bolus and 25 mg/kg/hr infusion
[7] = Group B: 100 mg/kg bolus and 12.5 mg/kg/hr infusion
[8] = Group A: 50 mg/kg bolus and 25 mg/kg/hour infusion
[9] = Group A: 50 mg/kg bolus and 25 mg/kg/hour infusion, 23 patients
[10] = Group B: 100 mg/kg bolus and 12.5 mg/kg/hour infusion
[11] = Group B: 100 mg/kg bolus and 12.5 mg/kg/hour infusion, 24 patients

## O=C(O)C(Cl)Cl [DCA, dichloroacetate]
[1]
  Plasma Dichloroacetate Levels: approximately 1 mM
[1]; listed as Dichloroacetate
  Plasma Dichloroacetate Levels: 0.948 ± 0.061 mM
[2]
  mortality: no mortalities
[3]; Example C, Group B, 1 to 6 hour interval
  optimum mean DCA plasma level: 1 mM
[3]; [6]
  Average DCA Plasma Levels, mM at 6 hr: 1.134 mM
  Average DCA Plasma Levels, mM at 12 hr: 1.771 mM
  Average Optimum Mean of DCA Plasma Levels, mM at 1 hr: 1.0 mM
  Average Optimum Mean of DCA Plasma Levels, mM at 6 hr: 0.916 mM
  Average Optimum Mean of DCA Plasma Levels, mM at 12 hr: 1.52 mM and 1.523 mM
  Average Optimum Mean of DCA Plasma Levels, mM at 24 hr: 2.29 mM and 2.288 mM
[3]; [7]
  Average DCA Plasma Levels, mM at 1 hr: 1.131 mM
  Average DCA Plasma Levels, mM at 6 hr: .894 mM
  Average DCA Plasma Levels, mM at 12 hr: 1.427 mM
  Average DCA Plasma Levels, mM at 24 hr: 2.231 mM
  Average Optimum Mean of DCA Plasma Levels, mM at 1 hr: 1.012 mM
  Average Optimum Mean of DCA Plasma Levels, mM at 6 hr: 1.0 mM
  Average Optimum Mean of DCA Plasma Levels, mM at 12 hr: 1.0 mM
  Average Optimum Mean of DCA Plasma Levels, mM at 24 hr: 1.0 mM
[4]; [8]
  decrease of ventilator time compared to placebo: 47%
  reduction of ventilator time compared to placebo: 46 h
[4]; [9]
  decrease of time in ICU compared to placebo: 41%
  reduction of time in ICU compared to placebo: 60 h
[4]; Group A, by 1 hour
  reduction of Inotrope Score compared to placebo: 50%
[4]; Group A, by 12 hours
  reduction of Inotrope Score compared to placebo: 45%
[4]; Group A, by 24 hours
  reduction of Inotrope Score compared to placebo: 38%
[4]; Group A
  average decrease in Inotrope Score per patient compared to placebo: 44%
[4]; [10]
  decrease of ventilator time compared to placebo: 23%
  reduction of ventilator time compared to placebo: 18 h and 19 h
[4]; [11]
  decrease of time in ICU compared to placebo: 40%
  reduction of time in ICU compared to placebo: 50 h
[4]; Group B, by 1 hour
  reduction of Inotrope Score compared to placebo: 57%
[4]; Group B, by 12 hours
  reduction of Inotrope Score compared to placebo: 49%
[4]; Group B, by 24 hours
  reduction of Inotrope Score compared to placebo: 45%
[4]; Group B
  average decrease in Inotrope Score per patient compared to placebo: 51%
[5]; patients
  side-effects: not have significant side-effects, although some patients experience mild drowsiness
[5]; previous studies
  adverse effects in previous (pilot) studies: no adverse effects
